Entries after “also recorded” stand apart in the source; their conditions may differ. Read-outs that look alike come from different tables or passages of the source. Marks after values point to notes of the source that are not given here.
What was measured:
[1] = test system: MOG-induced EAE in NOD mice; experiment: Efficacy in MOG-induced EAE in NOD mice, daily treatment from day 20 to day 70; format: in vivo; settings: for Severity of EAE (in words): compared to carboxyfullerene treated and vehicle (PBS) treated mice, Table 3, FIG. 3; for Phase II Second Peak Mean Score Disease / Phase III Third Peak Mean Score Disease / Phase IV Secondary Progressive Mean Score Disease: scale 0-5; for Cumulative Score: days 21-70; for Prevalence of Disease with score above 1.5: treated daily from day 20 after immunization to day 70; for Phase IV Secondary Progressive Mean Score Disease: day 70
Description: Non-obese diabetic (NOD) mice were purchased from Jackson laboratories. The mice were maintained in viral antibody-free (VAF) facility at Harvard Institutes of Medicine animal care facility and used at 10 weeks of age.
Myelin oligodendrocyte glycoprotein (MOG 35-55) was synthesized at the peptide/protein facility at the center for neurologic disease at BWH, Boston, Mass., USA.
(§1) Mice were immunized S.C. with 150 μg of MOG 35-55 peptide in […].
(§2) Pertussis toxin was given I.V. (150 ng per mouse) at the time of immunization and 48 hours later. The severity of disease was evaluated daily on the following scale: 0 for no clinical symptoms; 1 for distal tail weakness or tail atonia; 2 for impaired righting reflex and slight hind limb paralysis; 3 for complete paralysis affecting of both hind limbs; 4 for complete paralysis affecting of both hind limbs and fore limb weakness, or moribund state; and 5 for death.

[2] = test system: MOG-induced EAE in NOD mice; experiment: Efficacy in MOG-induced EAE in NOD mice, Compound 20 at two doses compared to NBQX, daily from day 23; format: in vivo
Description: as §1, §2

[3] = test system: spinal cord of EAE-induced NOD mice; experiment: Histological staining of spinal cord sections of EAE-induced NOD mice (Bielschowsky silver, Luxol fast blue); format: in vivo
Description: The attenuation of EAE progress in model animals was further tested by following pathological findings thereof in 7 μm coronal spinal cord section samples of the tested mice under cryogenic conditions. The axonal pathology analysis was performed on day 63 post-immunization by immunostaining of spinal cord sections. Spinal cord sections from mice were fixed in 4% paraformaldehyde overnight followed by 4.5% sucrose for 4 hours, then 20% sucrose for overnight at 4° C. Spinal cord sections were frozen and stored until used at −80° C.
Histological staining studies of spinal cord sections were preformed according to the Bielschowsky silver staining method, which specifically stains nerve fibers and axons so as to appear in black when observed under an optical microscope, and according to the Luxol fast blue staining method, which specifically stains myelin/myelinated axons so as to stain the myelin in blue-green while the neuron remains pink when observed under an optical microscope. Reduction in the degree of staining expresses damage to the neuron.
The Bielschowsky silver staining was performed as described before in Litchfield and Nagy, Acta Neuropathol (Berl) 2001, 101(1), pp. 17-21. Briefly, spinal cord sections were place in pre-warmed solution of 10% silver nitrate placed in a 40° C. oven and shaken for 15 minutes until sections became light brown in color, and thereafter rinsed in water. The spinal cord sections were thereafter placed back in the same ammonium silver solution and placed in a 40° C. oven for additional 30 minutes and rinse in water followed by dehydration in 95% ethyl alcohol, absolute alcohol and xylene.
The Luxol fast blue staining was perform as described before in Dolcetta et al J Neurosci Res.; 81(4):597-604. Briefly, spinal cord sections were placed in luxol fast blue solution in a 56° C. oven for 16 hours and rinsed with 95% ethyl alcohol and distilled water. Thereafter the spinal cord sections were placed in carbonate solution for 30 seconds and rinsed in water followed by dehydration in 95% ethyl alcohol, absolute alcohol and xylene. […]

[4] = for Increase of maximal aqueous solubility: with a 10 fold increase in DMSO content
Description: 20 mg of each of the tested hybrid compounds of the present invention was dissolved in 0.2 ml of DMSO and then diluted with 200 ml, 40 ml, 20 ml and 10 ml of water to obtain a 0.1%, 0.5% 0.1% and 2.0% DMSO content in the aqueous solution, respectively. Each aqueous solution was sonicated for 2 minutes, filtered through 0.2 micron filter and centrifuged at 14,000 rpm for 3 minutes. UV-VIS spectra were obtained thereafter at 476 nm to determine the solubilized fraction of the tested hybrid compound.

[5] = 0.1% DMSO content in final aqueous solution
[6] = 0.5% DMSO content in final aqueous solution

Row | Molecule | Severity of EAE (in words) [1] | Phase II Second Peak Mean Score Disease ([1]; day 26) | Phase II Second Peak Mean Score Disease ([1]; day 27) | Phase III Third Peak Mean Score Disease ([1]; day 31) | Phase III Third Peak Mean Score Disease ([1]; day 38) | Cumulative Score [1] | Prevalence of Disease with score above 1.5 [1] | Phase IV Secondary Progressive Mean Score Disease [1] | Increase of maximal aqueous solubility [4] | Maximal aqueous concentration [4, 5] | Maximal aqueous concentration [4, 6] | also measured
1 | 2,2-fullerenyl-malonic acid bis(adamantan-1-ylcarbamate-poly(n)ethyleneglycol) ester wherein average n=10 [Compound 20] | clearly reduce the severity of relapsing-remitting EAE; also recorded: reduction in severity of the disease | 0.70* | 0.55* | 0.60* | 0.65* | 53.0* | 4/10 | – | – | – | – | Severity of the disease, mean disease score (in words) ([2]; 30 μg/Kg and 300 μg/Kg, compared to NBQX treated and untreated mice, FIG. 4): reduction in severity of the disease; Death ([2]; 30 μg/Kg daily from day 23): 0/14; Phase II Second Peak Mean Score Disease ([2]; 30 μg/Kg daily from day 23, day 37): 1.60*; Phase II Second Peak Mean Score Disease ([2]; 30 μg/Kg daily from day 23, day 41): 1.50*; Phase III Secondary Progressive Mean Score Disease ([2]; 30 μg/Kg daily from day 23, day 62): 2.12*; Phase III Secondary Progressive Mean Score Disease ([2]; 30 μg/Kg daily from day 23, day 63): 2.15*; Protection from progression of chronic EAE (in words) ([2]; 30 μg/Kg daily, compared to 300 μg/Kg): significantly protect progression of chronic EAE; Death ([2]; 300 μg/Kg daily from day 23): 2/14; Phase II Second Peak Mean Score Disease ([2]; 300 μg/Kg daily from day 23, day 37): 2.25; Phase II Second Peak Mean Score Disease ([2]; 300 μg/Kg daily from day 23, day 41): 2.25; Phase III Secondary Progressive Mean Score Disease ([2]; 300 μg/Kg daily from day 23, day 62): 3.08; Phase III Secondary Progressive Mean Score Disease ([2]; 300 μg/Kg daily from day 23, day 63): 3.17; Axonal density / axonal damage in white matter of spinal cord (in words) ([3]; Bielschowsky silver impregnation, day 63 post-immunization, compared to untreated control mice, FIG. 5): reduction of EAE-derived axonal damage; also recorded: lower reduction in axonal density; Demyelination of axons in white matter of spinal cord (in words) ([3]; Luxol fast blue staining, compared to untreated control mice, FIG. 6): reduction in demyelination of axons; Progression of chronic EAE as damage to neurons (in words) ([3]; treatment initiated after disease onset, FIGS. 5 and 6): lesser damage caused to the neurons
2 | O=C(O)C1(C(=O)O)C2=C1C1C3C4=c5c6c7c8c(c9c(c%10c%11c%12c%13c%14c%15c%16c(c2c3c%16c5c%14c6c%12c%108)C=CC%152C(C(=O)O)(C(=O)O)C%132C=C%11)C9(C(=O)O)C(=O)O)C2C=CC1C4C72 (stereo not drawn) [Carboxyfullerene, C3-stereoisomer of trimalonic acid derivative of a C60 fullerene, reference compound] | – | 1.00 | 0.85 | 1.15 | 1.45 | 87.45 | 8/10 | 2.65 | – | – | – | –
3 | 2,2-fullerenyl-malonic acid bis(adamantan-1-ylcarbamate-diethyleneglycol) ester [Compound 16] | – | – | – | – | – | – | – | – | 20 fold | – | – | –
4 | 2,2-fullerenyl-malonic acid bis(adamantan-1-ylcarbamate-tetraethyleneglycol) ester [Compound 6] | clearly reduce the severity of relapsing-remitting EAE; also recorded: reduction in severity of the disease | 0.75* | 0.80 | 0.90* | 1.30 | 90.6 | 9/10 | 2.85 | more than 2.6 fold | 1.18 10^−5 M | 1.38 10^−5 M | Maximal aqueous concentration ([4]; 2.0% DMSO content in final aqueous solution): 0.036 mg/mL
5 | NS(=O)(=O)c1cccc2c1c([N+](=O)[O-])cc1nc(O)c(O)nc12 [NBQX, 2,3-dihydroxy-6-nitro-7-sulfamoyl-benzo(f)quinoxaline, reference compound] | – | – | – | – | – | – | – | – | – | – | – | Death ([2]; 30 mg/Kg daily from day 23): 6/14; Phase II Second Peak Mean Score Disease ([2]; 30 mg/Kg daily from day 23, day 37): 1.75; Phase II Second Peak Mean Score Disease ([2]; 30 mg/Kg daily from day 23, day 41): 1.88; Phase III Secondary Progressive Mean Score Disease ([2]; 30 mg/Kg daily from day 23, day 62): 3.31; Phase III Secondary Progressive Mean Score Disease ([2]; 30 mg/Kg daily from day 23, day 63): 3.38; Suppression of the second phase of EAE (in words) ([2]; 30 mg/Kg, Table 4, FIG. 4): showed a tendency to suppress the second phase of EAE; Preventing the chronic disease progression (in words) ([2]; NBQX 30 mg/Kg compared to Compound 20 at 30 and 300 μg/Kg): not as effective as the Compound 20
6 | 2,2-fullerenyl-malonic acid bis(adamantan-1-ylcarbamate-poly(n)ethyleneglycol) ester wherein average n=10 [Compound 19] | – | – | – | – | – | – | – | – | 6 fold | 1.17 10^−5 M | 5.12 10^−5 M | Maximal aqueous concentration ([4]; 1.0% DMSO content in final aqueous solution): 6.97 10^−5 M

From patent publication US20100144868A1, “Novel Neuroprotective Compounds and Uses Thereof” (Ramot At Aviv University Ltd., priority 2005, published 2010)
